According to patent US20060088475A1, “Self-immolative magnetic resonance imaging contrast agents sensitive to beta-glucuronidase” (Northwestern University, priority 2004, published 2006):
Blank lines part the entries; values can stand above or below the molecule they belong to.

What was measured:
[1] = T1 relaxivity at 60 MHz, 37° C. (inversion recovery, Gd(III) concentration by ICP-MS); type: physicochemical; details: for relaxivity r1 / increase in relaxivity on going from anion mimic to human serum: 37° C.; for decrease of relaxivity on addition of carbonate to the buffers: 24 mM carbonate added to MOPS or phosphate/BSA buffer; for decline of relaxivity in anion extracellular mimic: anion extracellular mimic (100 mM NaCl, 0.9 mM Na2HPO4, 30 mM NaHCO3, 0.13 mM sodium citrate, 2.3 mM sodium lactate) versus carbonate-containing buffers; for increase in relaxivity on going from anion mimic to human serum: male human blood serum versus extracellular anion mimic
Protocol: A 4 mM stock solution of either 1 or 2 in the appropriate buffer was diluted to give 500 μL each of seven approximate concentrations for each run: 0, 0.05, 0.15, 0.3, 0.5, 1.0, and 2.0 mM. The T1 of each concentration was determined using an inversion recovery pulse sequence with appropriate recycle delays on a Bruker mq60 Minispec. This instrument has a proton Larmor frequency of 60 MHz and operates at 37° C. The resulting curves were fit to a monoexponential function to obtain T10.10 μL of each sample was digested in concentrated nitric acid, diluted with water and analyzed for exact Gd(III) concentration using ICP-MS. The reciprocal of the longitudinal relaxation time was plotted against the concentration obtained from ICP-MS and fit to a straight line. All lines fit with R^2>0.998. This was performed for each buffer in duplicate. The buffers were all made to have the appropriate pH at 37° C. and remade if the pH had drifted more than 0.05 pH units upon storage. Anion mimic and carbonate containing buffers were made fresh daily.

[2] = Determination of q via Eu(III) phosphorescence lifetimes in H2O and D2O; type: physicochemical
Protocol: Determination of q: Europium(III) compound 4 was dissolved in H2O and D2O. The emission was monitored at 614 nm with excitation at 394 nm on a Hitachi F4500 fluorometer operating in Phosphorescence Lifetime (short) mode. The shortest lifetime measurable with this instrument is about 0.3 ms. Fifteen scans were averaged and fit to a monoexponential decay to give phosphorescent lifetimes. T(D2O)=1.274 ms; T (H2O)=0.527 ms. Using the equation of Supkowski and Horrocks (See, e.g., Supkowski and Horrocks, Inorg. Chim. Acta 2002, 340, 44-48), q=0.89 while the equation from Beeby et al. ^40generates q=1.04.

[3] = phenol of the linker; cited from earlier work
[4] = molecular target: T1, bovine liver β-glucuronidase (Bos taurus, UniProt A3KMY8); assay: LC-MS analysis of the enzyme reaction mixture; type: biochemical; details: phosphate buffer with 0.01% BSA, pH=7.4, 37° C., after 24 h
T1 construct: β-glucuronidase isolated from bovine liver was chosen for the current studies; purchased Sigma G 0251; host or cells: bovine liver (tissue isolate)
T1 sequence (A3KMY8 1-652): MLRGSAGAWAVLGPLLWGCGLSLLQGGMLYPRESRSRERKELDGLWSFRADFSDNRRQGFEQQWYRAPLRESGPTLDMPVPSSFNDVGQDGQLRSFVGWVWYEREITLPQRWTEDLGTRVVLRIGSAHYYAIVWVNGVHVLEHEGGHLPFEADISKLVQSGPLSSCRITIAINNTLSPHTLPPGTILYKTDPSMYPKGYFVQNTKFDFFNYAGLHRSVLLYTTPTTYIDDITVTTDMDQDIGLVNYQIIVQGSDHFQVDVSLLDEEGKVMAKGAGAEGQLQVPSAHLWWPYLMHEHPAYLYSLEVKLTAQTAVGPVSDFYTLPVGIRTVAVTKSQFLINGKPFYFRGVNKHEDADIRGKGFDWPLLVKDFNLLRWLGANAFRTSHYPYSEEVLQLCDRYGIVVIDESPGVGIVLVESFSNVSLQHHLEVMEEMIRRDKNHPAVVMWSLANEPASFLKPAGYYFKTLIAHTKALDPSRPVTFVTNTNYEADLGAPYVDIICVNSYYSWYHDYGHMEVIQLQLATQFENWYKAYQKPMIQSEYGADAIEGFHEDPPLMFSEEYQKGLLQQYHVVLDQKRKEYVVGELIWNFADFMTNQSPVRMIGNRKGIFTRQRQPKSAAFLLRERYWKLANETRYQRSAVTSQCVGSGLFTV
Protocol: LC-MS. […] The alcohol and 1 are readily distinguished by their absorption spectra (PDA), their appropriate negative mode ESI-MS patterns and through spiking with authentic compound. 2 was more difficult to detect but could be observed using fluorescence. The HPLC method was as follows: 0-10% B over 10 min, hold at 10% B for 15 min, with fluorescence using λex=271 nm, λem=314 nm.

[5] = system: bovine liver β-glucuronidase; assay: Enzyme catalyzed hydrolysis kinetics monitored by bulk water T1 relaxation (magnetic resonance); type: biochemical; details: acetate buffer, over the course of an hour, no enzyme
Protocol: (§1) General: Bovine liver β-glucuronidase (Type B-1, Sigma G 0251) stability in several buffers was assayed by incubating the enzyme in the desired buffer and sampling its activity at various time intervals using the Sigma quality control assay for β-glucuronidase from bovine liver. It was determined that MOPS and anion mimic (See, e.g., Parker, D. In Crown Compounds: Towards Future Applications; Cooper, S. R., Ed.; VCH: New York, 1992, pp 51-67) engendered the enzyme with poor stability, while 100 mM phosphate with 0.01% (w/v) bovine serum albumin (BSA), pH=7.4 at 37° C. gave suitable stability (>2 h at 37° C. without loss of activity) provided the enzyme concentration was greater than 0.5 mg/ml. The enzyme was stable for at least 24 h at 37° C. at its native pH of 5.0 in 100 mM acetate buffer. All kinetics measurements were made with 0.2 mM substrate, 1, in 510 μL buffer with either 1.0 mg/ml enzyme (those buffers at pH=7.4) or 0.1 mg/ml enzyme (pH=5.0 acetate buffer). For all buffers except serum (due to its opacity), the kinetics were determined simultaneously by both UV-visible and magnetic resonance. The runs were all continuous assays that are known to give the best data (See, e.g., Marangoni, A. G. Enzyme kinetics: a modern approach; Wiley-Interscience: Hoboken, N.J., 2003; Copeland, R. A. Enzymes: a practical introduction to structure, mechanism, and data analysis; VCH Publishers: New York, N.Y., 1996). Each run was performed in triplicate and two controls, one without enzyme and one without substrate, were also measured. […] This trend is in the opposite direction of the kinetics runs that show an increase in T1.
(§2) Magnetic Resonance: T1 was determined at intervals of 2 minutes for the first 30 min and 4 minutes for the next 30 min using a saturation recovery (90-T-90) pulse sequence using the Bruker mq60 operating as detailed in the relaxivity section. This sequence is less accurate than the inversion recovery method, but gives faster results. The runs were performed in triplicate. The substrate-only control was also examined in this manner.

[6] = molecular target: T1, bovine liver β-glucuronidase; assay: as above; type: biochemical
Protocol: as §1, §2

[7] = molecular target: T1, bovine liver β-glucuronidase; assay: Enzyme catalyzed hydrolysis kinetics monitored by UV-visible; type: biochemical; details: for initial rate: 0.2 mM 1, 1.0 mg/ml enzyme, pH 7.4, 37° C.
Protocol: as §1
UV-visible: The enzymatic hydrolysis of the pyranose from 1 and subsequent linker decomposition generates 4-hydroxy-3-nitrobenzyl alcohol. This compound has a maximum absorbance of 422 nm at pH=7.4. The molar absorptivity, E, was determined in triplicate from 0-0.2 mM, on an HP 8452A diode array spectrometer thermostated to 37° C. For 100 mM phosphate, 0.01% (w/v) BSA, pH=7.4 at 37° C. it is 2840±40 M^−1 cm^−1. For 100 mM phosphate, 24 mM NaHCO3, 0.01% (w/v) BSA, pH=7.4 at 37° C. it is 3010±50 M^−1 cm^−1. […] At pH=5.0 in acetate buffer, the maximum is at 354 nm. This overlaps with substrate, 1, absorption. The kinetics were sampled on the HP 8452A at 37° C. every 20 seconds for an hour. The initial rates for pH=7.4 buffers were determined through a linear fit of the first 10% change in absorbance. For the acetate buffer, only a half-life of conversion is reported. […] 4-hydroxy-3-nitrobenzyl alcohol was also present in the acetate runs as determined by LC-MS using 100 mM acetate pH=5 as solvent A.

[8] = 10 mM MOPS, 100 mM NaCl, pH=7.4, 60 MHz
[9] = 10 mM pyridine, 100 mM sodium chloride buffer, pH=5.0, 60 MHz
[10] = 100 mM acetate buffer, pH=5.0, 60 MHz
[11] = 100 mM sodium phosphate, 0.01% (w/v) BSA, pH=7.4, 60 MHz

Molecule: NCCN1CCN(CC(=O)[O-])CCN(CC(=O)[O-])CCN(CC(=O)[O-])CC1.[Gd+3] [Compound 2, Gadolinium(III)1-(2-aminoethyl)-4,7,10-(tris-carboxymethyl)-(1,4,7,10-tetrazaacyclododecane)]
relaxivity r1 [1, 8]: comparable to GdHP-DO3A
relaxivity r1 [1, 9]: 4.16 ± 0.09 mM⁻¹ s⁻¹
decrease of relaxivity on addition of carbonate to the buffers ([1]; pH=7.4): remained the same within error
relaxivity r1 [1, 10]: 2.16 ± 0.04 mM⁻¹ s⁻¹
relaxivity r1 [1, 11]: 3.68 mM⁻¹ s⁻¹
decline of relaxivity in anion extracellular mimic [1]: 6%
increase in relaxivity on going from anion mimic to human serum [1]: 150%

phosphorescent lifetime T(D2O) ([2]; D2O, excitation 394 nm, emission 614 nm): 1.274 ms
q (inner-sphere water molecules) ([2]; Eu(III) fluorescence, absence of buffer salts): 1
phosphorescent lifetime T (H2O) ([2]; H2O, excitation 394 nm, emission 614 nm): 0.527 ms
q (inner-sphere water molecules) ([2]; equation from Beeby et al.): 1.04
q (inner-sphere water molecules) ([2]; equation of Supkowski and Horrocks): 0.89
Molecule: Europium(III) 1-(4-(2-(1-(4,7,10-tris-carboxymethyl-(1,4,7,10-tetrazaacyclododecyl)))-ethylcarbamoyloxymethyl)-2-nitrophenyl)-β-D-glucopyronuronate [Compound 4]

Molecule: CC(O)CN1CCN(CC(=O)[O-])CCN(CC(=O)[O-])CCN(CC(=O)[O-])CC1.[Gd+3] (stereo not drawn) [GdHP-DO3A, reference compound]
relaxivity r1 [1, 8]: 2.99 ± 0.44 mM⁻¹ s⁻¹

Molecule: O=[N+]([O-])c1cc(CO)ccc1O [4-hydroxy-3-nitrobenzyl alcohol]
pKa [3]: about 7.5

presence of substrate in reaction mixture by LC/MS [4]: disappeared
decrease in T1 of substrate control without enzyme [5]: 2%
increase in T1 during enzyme incubation (levels off) ([6]; 0.2 mM 1, 0.1 mg/ml β-glucuronidase, acetate buffer pH=5.0, around 35 min): 15%
increase in T1 during enzyme incubation ([6]; 0.2 mM 1, 1.0 mg/ml β-glucuronidase, human serum, over one hour, curve not saturated): 14%
initial rate ([7]; phosphate/BSA (100 mM sodium phosphate, 0.01% BSA)): 158 ± 34 nmol product/h/mg enzyme
initial rate ([7]; phosphate/BSA/carbonate (24 mM NaHCO3)): 148 ± 26 nmol product/h/mg enzyme
time to complete conversion ([7]; pH=5 acetate buffer, enzyme concentration 10% of that at pH=7.4): ≤ 45 min
initial rate at pH=7.4 relative to standard substrate 4-methylumbelliferyl-β-D-glucuronide at pH=5.5 ([7]; pH=7.4 versus literature pH=5.5 data): roughly 8%
Molecule: O=C([O-])CN1CCN(CCNC(=O)OCc2ccc(O[C@@H]3O[C@H](C(=O)O)[C@@H](O)[C@H](O)[C@H]3O)c([N+](=O)[O-])c2)CCN(CC(=O)[O-])CCN(CC(=O)[O-])CC1.[Gd+3] [Compound 1, Gadolinium(III) 1-(4-(2-(1-(4,7,10-tris-carboxymethyl-(1,4,7,10-tetrazaacyclododecyl)))-ethylcarbamoyloxymethyl)-2-nitrophenyl)-β-D-glucopyronuronate]
relaxivity r1 [1, 8]: higher value
relaxivity r1 [1, 9]: 3.89 ± 0.05 mM⁻¹ s⁻¹
decrease of relaxivity on addition of carbonate to the buffers ([1]; pH=7.4): 20-30%
relaxivity r1 [1, 10]: 2.53 ± 0.01 mM⁻¹ s⁻¹
relaxivity r1 [1, 11]: 4.73 mM⁻¹ s⁻¹
decrease in relaxivity between the pure compounds (1 to 2) ([1]; acetate buffer, pH=5.0): 15%
increase in relaxivity from 1 to 2 (dark to bright change) ([1]; anion extracellular mimic): 17%
decline of relaxivity in anion extracellular mimic [1]: 22%
relaxivity differential, 1 brighter than 2 ([1]; human serum): 27%
increase in relaxivity on going from anion mimic to human serum [1]: 240%
drop in relaxivity upon going from 1 to 2 ([1]; phosphate/BSA buffer (same trend as MOPS), pH=7.4): 20%
